What was measured:
[1] = target: Human immunodeficiency virus type 1 reverse transcriptase (Human immunodeficiency virus 1) (UniProt Q72547); test: Inhibition of HIV1 reverse transcriptase at 200 ug/ml
[2] = target: Human immunodeficiency virus type 1 reverse transcriptase (Human immunodeficiency virus 1, UniProt Q72547); test: Inhibition of HIV1 reverse transcriptase
[3] = tested on: Human immunodeficiency virus 2; test: Inhibition of HIV2 reverse transcriptase at 200 ug/ml
[4] = Inhibition of HIV2 reverse transcriptase; set-up: species or system Human immunodeficiency virus 2
[5] = tested on: Human immunodeficiency virus 1; test: Inhibition of HIV1 reverse transcriptase mutant at 200 ug/ml
[6] = Inhibition of HIV1 reverse transcriptase mutant; set-up: species or system Human immunodeficiency virus 1
[7] = tested on: Avian myeloblastosis virus; test: Inhibition of AMV reverse transcriptase at 200 ug/ml
[8] = Inhibition of AMV reverse transcriptase; set-up: species or system Avian myeloblastosis virus
[9] = Inhibition of DNA polymerase alpha at 200 ug/ml
[10] = Inhibition of DNA polymerase alpha
[11] = Inhibition of DNA polymerase beta at 200 ug/ml
[12] = Inhibition of DNA polymerase beta
[13] = Inhibition of RNA polymerase at 200 ug/ml
[14] = Inhibition of RNA polymerase
[15] = Inhibition of DNA dependent DNA polymerase at 200 ug/ml
[16] = Inhibition of DNA dependent DNA polymerase
[17] = Inhibition of RNaseH at 200 ug/ml
[18] = Inhibition of RNaseH

C=C(C)[C@@H]1CC[C@@H]2[C@]3(CC[C@]4(C)[C@@H]([C@H](C)CC/C=C(/C)C(=O)O)CC[C@@]24C)C[C@]13CCC(=O)O [NIGRANOIC ACID]
inhibition [1]: 99.4%
IC50 [2]: 159 µM
inhibition [3]: 76.7%
IC50 [4]: 356 µM
inhibition [5]: 71%
IC50 [6]: 388 µM
inhibition [7]: 99.2%
IC50 [8]: 242 µM
inhibition [9]: 46.2%
IC50 [10]: > 425 µM
inhibition [11]: 99.1%
IC50 [12]: 16.6 µM
inhibition [13]: 75.4%
IC50 [14]: 188 µM
inhibition [15]: 96.7%
IC50 [16]: 40.6 µM
inhibition [17]: 6.8%
IC50 [18]: > 425 µM

Reference: ChEMBL document CHEMBL1158221, “Nigranoic acid, a triterpenoid from Schisandra sphaerandra that inhibits HIV-1 reverse transcriptase” (J Nat Prod, 1996)
